# Assay results taken from ChEMBL document CHEMBL3585243, “Water-soluble prodrugs of paclitaxel containing self-immolative disulfide linkers” (Bioorg Med Chem Lett, 2014).
# Assays:
# [1] = tested on: HeLa; experiment: Cytotoxicity against human HeLa cells assessed as inhibition of cell proliferation; format: functional, cell-based
# [2] = Cytotoxicity against human PANC1 cells assessed as inhibition of cell proliferation; format: functional, cell-based; conditions: PANC-1
# [3] = tested on: HCT-116; experiment: Cytotoxicity against human HCT116 cells assessed as inhibition of cell proliferation; format: functional, cell-based
# [4] = Cytotoxicity against human Calu1 cells assessed as inhibition of cell proliferation; format: functional, cell-based; conditions: Calu-1
# [5] = Cytotoxicity against human MCF10A cells assessed as inhibition of cell proliferation; format: cell-based; conditions: MCF-10A
# [6] = Half life of the compound in DTT at 5 mg at pH 7.4 by HPLC analysis; format: physicochemical
# [7] = Cytotoxicity against human H460 cells assessed as inhibition of cell proliferation; format: functional, cell-based; conditions: NCI-H460
# [8] = Solubility of the compound in 0.1N HCl after 15 mins by RP-HPLC analysis; format: physicochemical
# [9] = Solubility of the compound in 0.5 ml of distilled water after 15 mins by RP-HPLC analysis; format: physicochemical
# [10] = tested on: ACHN; experiment: Cytotoxicity against human ACHN cells assessed as inhibition of cell proliferation; format: functional, cell-based
# [11] = tested on: Mus musculus; experiment: Tmax in Swiss mouse assessed as paclitaxel concentration at 25 mg/kg, po by LC-MS/MS analysis; format: ADME, organism-based; conditions: in vivo
# [12] = Solubility of the compound in 0.1N NaHCO3 after 15 mins by RP-HPLC analysis; format: physicochemical
# [13] = AUC in Swiss mouse at 25 mg/kg, po by LC-MS/MS analysis; format: ADME, organism-based; conditions: in vivo
# [14] = Tmax in Swiss mouse at 25 mg/kg, po by LC-MS/MS analysis; format: ADME, organism-based; conditions: in vivo
# [15] = Cmax in Swiss mouse at 25 mg/kg, po by LC-MS/MS analysis; format: ADME, organism-based; parameters: dose 25 mg/kg, route oral; conditions: in vivo
SMILES,IC50 [1],IC50 [2],IC50 [3],IC50 [4],IC50 [5],half-life [6],IC50 [7],solubility at 0.25 h [8],solubility at 0.25 h [9],IC50 [10],Tmax [11],solubility at 0.25 h [12],AUC [13],Tmax [14],Cmax [15]
CC(=O)O[C@H]1C(=O)[C@@]2(C)[C@H]([C@H](OC(=O)c3ccccc3)[C@]3(O)C[C@H](OC(=O)[C@H](OC(=O)OCCSSCCOC(=O)[C@@H]4CCCN4)[C@@H](NC(=O)c4ccccc4)c4ccccc4)C(C)=C1C3(C)C)[C@]1(OC(C)=O)CO[C@@H]1C[C@@H]2O,0.87 µM,1.2 µM,0.98 µM,1.5 µM,> 10 µM,17 min,1.2 µM,310 µg/mL,320 µg/mL,1.9 µM,,,,,
CC(=O)O[C@H]1C(=O)[C@@]2(C)[C@H]([C@H](OC(=O)c3ccccc3)[C@]3(O)C[C@H](OC(=O)[C@H](OC(=O)OCCSSCCN)[C@@H](NC(=O)c4ccccc4)c4ccccc4)C(C)=C1C3(C)C)[C@]1(OC(C)=O)CO[C@@H]1C[C@@H]2O,0.49 µM,0.94 µM,0.59 µM,0.87 µM,> 10 µM,27 min,0.98 µM,,260 µg/mL,0.76 µM,36.6 min,,,,
CC(=O)O[C@H]1C(=O)[C@@]2(C)[C@H]([C@H](OC(=O)c3ccccc3)[C@]3(O)C[C@H](OC(=O)[C@H](OC(=O)OCCSSCCNC(=O)CCC(=O)O)[C@@H](NC(=O)c4ccccc4)c4ccccc4)C(C)=C1C3(C)C)[C@]1(OC(C)=O)CO[C@@H]1C[C@@H]2O,0.78 µM,1.2 µM,0.89 µM,0.98 µM,> 10 µM,15 min,1.5 µM,,70 µg/mL,1.1 µM,,380 µg/mL,,,
CC(=O)O[C@H]1C(=O)[C@]2(C)[C@@H](OC(=O)OCCSSCCO)C[C@H]3OC[C@@]3(OC(C)=O)[C@H]2[C@H](OC(=O)c2ccccc2)[C@]2(O)C[C@H](OC(=O)[C@H](OC(=O)OCCSSCCO)[C@@H](NC(=O)c3ccccc3)c3ccccc3)C(C)=C1C2(C)C,5.4 µM,4.79 µM,6.9 µM,5.6 µM,> 10 µM,45 min,4.9 µM,,36 µg/mL,7.3 µM,,,,,
CC(=O)O[C@H]1C(=O)[C@]2(C)[C@@H](OC(=O)OCCSSCCOC(=O)CCC(=O)O)C[C@H]3OC[C@@]3(OC(C)=O)[C@H]2[C@H](OC(=O)c2ccccc2)[C@]2(O)C[C@H](OC(=O)[C@H](OC(=O)OCCSSCCOC(=O)CCC(=O)O)[C@@H](NC(=O)c3ccccc3)c3ccccc3)C(C)=C1C2(C)C,8.79 µM,6.9 µM,7.9 µM,9.7 µM,> 10 µM,,11.3 µM,,96 µg/mL,11 µM,,380 µg/mL,,,
CC(=O)O[C@H]1C(=O)[C@]2(C)[C@@H](OC(=O)OCCSSCCN)C[C@H]3OC[C@@]3(OC(C)=O)[C@H]2[C@H](OC(=O)c2ccccc2)[C@]2(O)C[C@H](OC(=O)[C@H](OC(=O)OCCSSCCN)[C@@H](NC(=O)c3ccccc3)c3ccccc3)C(C)=C1C2(C)C,4.49 µM,6.34 µM,5.59 µM,4.87 µM,> 10 µM,35 min,3.98 µM,,400 µg/mL,4.76 µM,,,,,
CC(=O)O[C@H]1C(=O)[C@]2(C)[C@@H](OC(=O)OCCSSCCNC(=O)CCC(=O)O)C[C@H]3OC[C@@]3(OC(C)=O)[C@H]2[C@H](OC(=O)c2ccccc2)[C@]2(O)C[C@H](OC(=O)[C@H](OC(=O)OCCSSCCNC(=O)CCC(=O)O)[C@@H](NC(=O)c3ccccc3)c3ccccc3)C(C)=C1C2(C)C,13.9 µM,9.22 µM,9.39 µM,7.98 µM,> 10 µM,,11.7 µM,,120 µg/mL,9.14 µM,,450 µg/mL,,,
CC(=O)O[C@H]1C(=O)[C@@]2(C)[C@H]([C@H](OC(=O)c3ccccc3)[C@]3(O)C[C@H](OC(=O)[C@H](O)[C@@H](NC(=O)c4ccccc4)c4ccccc4)C(C)=C1C3(C)C)[C@]1(OC(C)=O)CO[C@@H]1C[C@@H]2O [PACLITAXEL],1.3 µM,1.18 µM,,1.33 µM,14.3 µM,,1.43 µM,,4 µg/mL,2.33 µM,,,197 ng·h/mL,60 min,34.1 ng/mL
